Experimental data reported in EP2396020B1, “NOVEL ANTIMICROBIAL PEPTIDES” (Institute Of Organic Chemistry And Biochemistry As CR, …, priority 2009, dated 2010).
Peptide text beside a SMILES is read from it.

Assays:
[1] = Determination of hemolytic activity; format: cell-based; conditions: rat red blood cells (5% suspension), 1 h at 37°C, physiological solution, read-out: hemolytic activity LC50
Experimental: (§1) The peptides in the concentration (1-200 µM) were incubated with rat red blood cells (5%) for 1 h at 37°C in a physiological solution at a final volume of 0.2 ml The samples were then centrifuged for 5 min at 250 g, and the absorbance of the supernatant was determined at 540 nm. Supernatants of red blood cells suspended in physiological solution and in 0.2% TRITON X100 in physiological solution served as controls for zero hemolysis (blank) and 100% hemolysis, respectively.

Bacillus subtilis = conditions: LB broth, 37°C, 20 h
Experimental: (§2) Antimicrobial activity was determined as a quantitative minimum inhibitory concentration (MIC) by observing bacterial growth in the presence of different concentrations of tested peptides. Mid-exponential phase bacteria were added to the solutions of the tested antimicrobial peptide at different concentrations (0.5 to 100 µM) in LB broth in multi-well plates. The plates were incubated at 37°C for 20 h while being continuously shaken in a Bioscreen C instrument (Finland). The absorbance was measured at 540 nm every 15 min and each peptide was tested at least 3 times in duplicate. In the experiments was routinely used 1.2 10^3 - 7.5 10^3 CFU of bacteria. Tetracycline in a concentration range of 0.1 - 50 µM was tested as a standard.

Staphylococcus aureus = conditions: LB broth, 37°C, 20 h
Experimental: as §2

Escherichia coli = conditions: LB broth, 37°C, 20 h
Experimental: as §2

Pseudomonnas aeruginosa = conditions: LB broth, 37°C, 20 h
Experimental: as §2

rat red blood cells = assay: Determination of hemolytic activity; format: cell-based; conditions: rat red blood cells (5%), 1 h at 37°C, physiological solution
Experimental: as §1

Compound	HC50 at 1 h [1] [µM]	antimicrobial activity MIC B.s. (Bacillus subtilis)	antimicrobial activity MIC S.a. (Staphylococcus aureus)	antimicrobial activity MIC E. c. (Escherichia coli)	antimicrobial activity MIC P.a. (Pseudomonnas aeruginosa)	hemolytic activity LC50 (rat red blood cells)
CC[C@H](C)[C@H](NC(=O)[C@H](CC(C)C)NC(=O)[C@H](Cc1c[nH]cn1)NC(=O)CNC(=O)[C@H](CC(C)C)NC(=O)[C@@H](NC(=O)[C@H](CCCCN)NC(=O)[C@H](CO)NC(=O)[C@H](Cc1c[nH]c2ccccc12)NC(=O)[C@H](CCSC)NC(=O)CN)[C@@H](C)CC)C(=O)N[C@@H](CCCNC(=N)N)C(N)=O [(1), H-Gly-Met-Trp-Ser-Lys-Ile-Leu-Gly-His-Leu-Ile-Arg-NH2] (H-GMWSKILGHLIR-NH2)	80	0,7 µM	7,4 µM	3,8 µM	45 µM	–
CC[C@H](C)[C@H](NC(=O)[C@H](CC(C)C)NC(=O)[C@H](Cc1c[nH]cn1)NC(=O)CNC(=O)[C@H](CC(C)C)NC(=O)[C@@H](NC(=O)[C@H](CCCCN)NC(=O)[C@H](CCCCN)NC(=O)[C@H](Cc1c[nH]c2ccccc12)NC(=O)[C@H](CCSC)NC(=O)CN)[C@@H](C)CC)C(=O)N[C@@H](CCCNC(=N)N)C(N)=O [(1-A/1), H-Gly-Met-Trp-Lys-Lys-Ile-Leu-Gly-His-Leu-Ile-Arg-NH2] (H-GMWKKILGHLIR-NH2)	93	1,1 µM	6,0 µM	1,8 µM	12,5 µM	–
CC[C@H](C)[C@H](NC(=O)[C@H](CCCCN)NC(=O)[C@H](CO)NC(=O)[C@H](Cc1c[nH]c2ccccc12)NC(=O)[C@H](CCSC)NC(=O)CN)C(=O)N[C@@H](CC(C)C)C(=O)NCC(=O)N[C@@H](Cc1c[nH]cn1)C(=O)N[C@@H](CC(C)C)C(=O)N[C@@H](CCCCN)C(=O)N[C@@H](CCCNC(=N)N)C(N)=O [(1-A/2), H-Gly-Met-Trp-Ser-Lys-Ile-Leu-Gly-His-Leu-Lys-Arg-NH2] (H-GMWSKILGHLKR-NH2)	> 200	2,2 µM	100 µM	28 µM	90 µM	–
CC[C@H](C)[C@H](NC(=O)[C@H](CC(C)C)NC(=O)[C@H](Cc1c[nH]cn1)NC(=O)CNC(=O)[C@H](CC(C)C)NC(=O)[C@@H](NC(=O)[C@H](CCCCN)NC(=O)[C@H](CO)NC(=O)[C@H](Cc1c[nH]c2ccccc12)NC(=O)[C@H](CCSC)NC(=O)CN)[C@@H](C)CC)C(=O)N[C@@H](CCCCN)C(N)=O [(1-A/3), H-Gly-Met-Trp-Ser-Lys-Ile-Leu-Gly-His-Leu-Ile-Lys-NH2] (H-GMWSKILGHLIK-NH2)	111	0,75 µM	12,5 µM	6.0 µM	50 µM	–
CC[C@H](C)[C@H](NC(=O)[C@H](CC(C)C)NC(=O)[C@H](CCCCN)NC(=O)CNC(=O)[C@H](CC(C)C)NC(=O)[C@@H](NC(=O)[C@H](CCCCN)NC(=O)[C@H](CCCCN)NC(=O)[C@H](Cc1c[nH]c2ccccc12)NC(=O)[C@H](CCCCN)NC(=O)CN)[C@@H](C)CC)C(=O)N[C@@H](CCCNC(=N)N)C(N)=O [(1-A/4), H-Gly-Lys-Trp-Lys-Lys-Ile-Leu-Gly-Lys-Leu-Ile-Arg-NH2] (H-GKWKKILGKLIR-NH2)	> 200	1,3 µM	60,0 µM	1,8 µM	14,2 µM	–
CC[C@H](C)[C@H](NC(=O)[C@H](Cc1c[nH]cn1)NC(=O)[C@H](CCCCN)NC(=O)[C@H](CC(C)C)NC(=O)[C@H](CC(C)C)NC(=O)[C@H](CO)NC(=O)[C@H](CCSC)NC(=O)[C@H](Cc1c[nH]c2ccccc12)NC(=O)[C@H](CCCCN)NC(=O)CN)C(=O)N[C@@H](CC(C)C)C(=O)N[C@@H](CCCCN)C(N)=O [(2), H-Gly-Lys-Trp-Met-Ser-Leu-Leu-Lys-His-Ile-Leu-Lys-NH2] (H-GKWMSLLKHILK-NH2)	80	0,8 µM	7,5 µM	2,2 µM	33 µM	–
CC[C@H](C)[C@H](NC(=O)[C@H](Cc1c[nH]cn1)NC(=O)[C@H](CCCCN)NC(=O)[C@H](CC(C)C)NC(=O)[C@H](CC(C)C)NC(=O)[C@H](CO)NC(=O)[C@H](CCCCN)NC(=O)[C@H](Cc1c[nH]c2ccccc12)NC(=O)[C@H](CCCCN)NC(=O)CN)C(=O)N[C@@H](CC(C)C)C(=O)N[C@@H](CCCCN)C(N)=O [(2-A/1), H-Gly-Lys-Trp-Lys-Ser-Leu-Leu-Lys-His-Ile-Leu-Lys-NH2] (H-GKWKSLLKHILK-NH2)	95	1,5 µM	25 µM	3 µM	12,5 µM	–
CC[C@H](C)[C@H](NC(=O)[C@H](Cc1c[nH]cn1)NC(=O)[C@H](CCCCN)NC(=O)[C@H](CC(C)C)NC(=O)[C@H](CC(C)C)NC(=O)[C@H](CCCCN)NC(=O)[C@H](CCSC)NC(=O)[C@H](Cc1c[nH]c2ccccc12)NC(=O)[C@H](CCCCN)NC(=O)CN)C(=O)N[C@@H](CC(C)C)C(=O)N[C@@H](CCCCN)C(N)=O [(2-A/2), H-Gly-Lys-Trp-Met-Lys-Leu-Leu-Lys-His-Ile-Leu-Lys-NH2] (H-GKWMKLLKHILK-NH2)	–	0,8 µM	4,5 µM	2,5 µM	10,7 µM	87,5 µM
CC[C@H](C)[C@H](NC(=O)[C@H](CCCCN)NC(=O)[C@H](CCCCN)NC(=O)[C@H](CC(C)C)NC(=O)[C@H](CC(C)C)NC(=O)[C@H](CO)NC(=O)[C@H](CCSC)NC(=O)[C@H](Cc1c[nH]c2ccccc12)NC(=O)[C@H](CCCCN)NC(=O)CN)C(=O)N[C@@H](CC(C)C)C(=O)N[C@@H](CCCCN)C(N)=O [(2-A/3), H-Gly-Lys-Trp-Met-Ser-Leu-Leu-Lys-Lys-Ile-Leu-Lys-NH2] (H-GKWMSLLKKILK-NH2)	126	1,2 µM	6,3 µM	2,7 µM	13,8 µM	–
